Assay results from US10105305B2, “Compositions and methods for promoting skin regeneration and hair growth” (THE JOHNS HOPKINS UNIVERSITY, priority 2014, dated 2018).
Entries after “also recorded” stand apart in the source; their conditions may differ.

Legend:
[1] = test system: neo-natal human epidermal keratinocytes (NHEK); test: qRT-PCR gene expression in cultured keratinocytes (NHEK); assay type: cell-based
Procedure: Cell Culture. Neo-natal human epidermal keratinocytes (Lonza, Walkersville, Md.) or lab-isolated foreskin keratinocytes were cultured in keratinocyte medium with added supplements (KGMGOLD). Treatment with recombinant IL-6 protein (50 ng/mL), cucurbitacin I (10-100 nM), poly (I:C) (20 μg/mL) and TLR3 pharmacological inhibitor (80 μM; EMD Millipore, Billerica, Mass.) was applied in basal medium containing transferrin, hydrocortisone and antibiotics for up to 24 hours. After 24 hours, treatment medium was replaced with KGM-GOLD and isolation of RNA as indicated.
Nucleofection. Nucleofection with siGENOME SMARTpoo1 Human Tap63, TLR3, REL-A and siCONTROL siRNA duplex oligonucleotides (Dharmacon-ThermoFischer Scientific) was performed in NHEK using the Amaxa 4D-Nucleofector according to manufacturer's instruction. Plated cells were treated with recombinant human IL-6 (50 ng/mL) protein or poly(I:C) (20 μg/mL) for 24 hours. Afterwards, treatment medium was removed and replaced with KGMGOLD complete medium for the duration of the experiment. Levels of appropriate gene expression were assessed by qRT-PCR using inventoried TaqMan reagents in three independent experiments.
Quantitative Real-Time PCR (qRT-PCR). Mouse skin was harvested prior to wounding and throughout wounding as described (Nelson et al., 2013). RNA was isolated from NHEK with RNeasy Mini Kit (Qiagen, Valencia, Calif.) with DNase I digestion. qRT-PCR was performed for genes of interest and 18S or ribosomal protein, large PO (RPLP0) (housekeeping genes) using inventoried TaqMan reagents. Differences in gene expression were assessed by comparative ΔΔCT values with fold change calculations.

murine skin wounds = test: Wound induced hair neogenesis (WIHN), regenerated hair follicles counted by CSLM; assay type: in vivo, mouse
Procedure: Wound Induced Hair Neogenesis (WIHN). All animal protocols are approved by the Johns Hopkins University Animal Care and Use Committee. C57BL/6J, B6; 129SF2/J and TLR3 null mice (B6; 129S1-Tlr3tm1Flv/J) were obtained from The Jackson Laboratory. Mixed strain (C57BL/6J×FVB/N×SJL/J) animals were provided by Dr. Jean Richa (University of Pennsylvania).
A 1 cm2 excisional full-thickness wounds to the level of skeletal muscle on the backs of 21-day old male and female mice was performed as previously described (Ito et al., 2007; Nelson et al., 2013). Numbers of regenerated hair follicles were quantified in the re-epithelialized skin by non-invasive confocal scanning laser microscopy (CSLM) as published (Fan et al., 2011). For all experiments, […] of “intervention” was injected into healing wound (under scab) or applied topically into open wound as shown in Table 1 below.
Treatments during WIHN assay. Recombinant mouse IL-6 protein (R&D Systems, Minneapolis, Minn.) and poly(I:C) (High Molecular Weight; InVivogen, San Diego, Calif.) was diluted in sterile PBS immediately prior to injection. Cucurbitacin I (Tocris Biosciences/R&D Systems, Minneapolis Minn.) was dissolved in 10% EtOH/PBS to a final concentration of 1 mg/mL prior to injection. RNase III enzyme (Life Technologies, Grand Island N.Y.) was diluted in supplied reaction buffer

P-STAT3, TAp63, ΔNp63 = test: Western blot of wound tissue in wt mice (P-STAT3, TAp63, ΔNp63); assay type: in vivo, mouse
Procedure: FIG. 2: IL-6 and pSTAT3 mediate TLR3 effects on WIHN. A) Mean fold change in IL-6 mRNA in healed scars at WD20-24 in HR vs. LR strains of mice as determined by qRT-PCR and normalized to housekeeping gene β-actin. B) Mean fold change in IL-6 mRNA after poly (I:C) addition (20 μg/mL) to NHEK for 6 hours or in strain matched wt and TLR3 KO mice 6 hours after wounding as determined by qRT-PCR and normalized to housekeeping gene RPLP0 (NHEK) or β-actin (mouse). C) Time course of IL-6 mRNA and protein expression throughout early stage wound healing in wt mice, as determined by qRT-PCR and ELISA, respectively. D) IL-6 (middle panels) and P-STAT3 (right panels; arrows) immunohistochemistry of healing scars at WD5 and WD8 in wt mice. Scale bar=50 μm. E) Cross-section histology of healed scar at WD22 after a single injection of IL-6 (25 ng) or PBS control at WD7. Regenerated hair follicles are marked with arrows. Scale bar=100 μm. F) Regenerated hair shafts (white, arrows) at ˜WD58-62 as visualized by dissecting microscope. G) WIHN in wt mice after single dose of rmIL-6 (25 ng) compared to PBS control as measured by CSLM. H) WIHN levels in wt mice after cucurbitacin I (2 mg/kg) or control as measured by CSLM. I) P-STAT 3 levels in the presence of cucurbitacin I (+) compared to control (−) in wt mice as measured by western blot and normalized to STAT3. PC=P-STAT3 positive control cell lysate. *p<0.05 by Student's T-test or Single Factor ANOVA.
FIG. 4: dsRNA and IL-6 induce keratinocyte stem cell genes. A) Mean fold change in TAp63 mRNA after IL-6 protein (50 ng/mL)+/−cucurbitacin I in NHEK as determined by qRT-PCR and normalized to housekeeping gene, RPLP0. B) TAp63 protein levels after IL-6 (25 ng) compared to PBS control in wt mice measured by western blot; normalized to β-actin. C) TAp63 and ΔNp63 protein levels after cucurbitacin I (2 mg/kg) compared to PBS control in wt mice measured by western blot; normalized to β-actin. D) Mean fold change in KRT1 mRNA with TAp63-specific or scrambled control siRNA in the presence of IL-6 (50 ng/mL) in NHEK as determined by qRT-PCR and normalized to housekeeping gene, RPLP0. E) Mean fold change in CBX4 mRNA after poly (I:C) (20 μg/mL) addition to NHEK for 24 hours as determined by qRT-PCR and normalized as in 4D. F) Mean fold change in CBX4 mRNA after IL-6 (50 ng/mL)+/−cucurbitacin I in NHEK for 24 hours as determined by qRT-PCR and normalized as in 4D. G) Mean fold change in KRT15 mRNA 72 hours after 24 hours of poly (I:C) (20 μg/mL) treatment to NHEK as determined by qRT-PCR and normalized as in 4D. H) Flow cytometry analysis of KRT15 protein expression 72 hours after 24 hours of poly (I:C) (20 μg/mL) or control to NHEK. *p<0.05 by Student's T-test or Single Factor ANOVA.

[2] = test system: normal nonwounded murine skin; test: Hair cycle in non-wounded murine skin after injection during telogen; assay type: in vivo; conditions: poly (I:C) 200 ng/mouse injected during telogen
NHEK [3] = test: Flow cytometry of KRT15 and vimentin in keratinocytes; assay type: cell-based, human
Text: Flow Cytometry. Keratinocytes and fibroblasts were fixed, permeabilized (BD Cytofix/Cytoperm kit), and stained with antibodies against human vimentin (BD Pharmingen clone RV202) and KRT15 (Abam clone LHK15) labeled with a chromophore preconjugated to Fab (Zenon mouse IgG labeling kit). Data was collected on a dual-laser flow cytometer (BD FACSCalibur) followed by FlowJo 10 (TreeStar) software analysis.

[4] = test system: β-catenin and GLI2 promoters; test: ChIP-qPCR of STAT3 occupancy at promoters in keratinocytes; assay type: cell-based, human; conditions: poly (I:C) treated keratinocytes, N=5, p<0.05
Procedure: Chromatin Immunoprecipitation. Poly(I:C) treated and control keratinocytes were crosslinked in 1% formaldehyde for 10 minutes, followed by addition of glycine for 5 minutes to quench unreacted formaldehyde. Cells were processed with EZ-ChIP Kit (Millipore) according to the manufacturer's instructions. Crosslinked protein-DNA complexes were captured with rabbit anti-Stat3 or normal rabbit IgG (sc-482X; sc-2027X, SCBT) antibodies. Real-time quantitative PCR was performed to determine the relative abundance of the promoter DNA sequence, associated with Stat3. Primers are detailed in Expanded Experimental Methods. Primers and graphics were designed based on ENCODE data (UCSC Genome Browser).
ChIP. The amplicon for Gli2 promoter site 4 encompasses TTCCAGGAA (SEQ ID NO:2) on chr2: 121621123-121621782 in the Encode database. It was amplified with the primer sequences: a) forward: 5 […]3′ (SEQ ID NO:3); b) reverse: 5′TCCTGTTCACATTGACGCC3′ (SEQ ID NO:4). The amplicon for β-catenin promoter site 4 encompasses TTCCTGGAA (SEQ ID NO:5) on chr3: 41264037-41264357 in the Encode database. This was amplified with the primer sequences: a) forward: 5′[…]3′ (SEQ ID NO:6); b) reverse: 5′[…]3′ (SEQ ID NO:7).

NHEK [5] = test: Immunocytochemistry: keratinocyte morphology and beta-catenin nuclear localization; assay type: cell-based, human; conditions: 72 hours after 24 hours of poly (I:C) 20 μg/mL
Procedure: […] Fixed cells were incubated with primary antibodies overnight, appropriate Alexa Fluor secondary antibodies and counterstained using VectaShield DAPI mounting medium (Vector Labs, Burlingame, Calif.). Slides were imaged at 60× magnification using the Nikon C1si True Spectral Imaging Confocal Laser Scanning Microscope system (Cell Imaging Core Facility, Sidney Kimmel Comprehensive Cancer Center, Johns Hopkins, Baltimore, Md.). Cell morphology and beta-catenin nuclear localization were quantified using the CellProfiler image analysis software (www.cellprofiler.org) (Carpenter et al., 2006) from confocal images of nuclei.

healed murine wounds = test: Histology and immunohistochemistry of healed mouse scars (epidermal thickness, cleaved caspase 3, Ki-67); assay type: in vivo
Procedure: Immunohistochemistry, Immunocytochemistry and Histology. Immunohistochemistry was performed on formalin-fixed paraffin-embedded mouse skin samples using the avidin-biotin complex method and AEC development (Vector Laboratories). Indicated antibodies were applied overnight. Sections were counterstained with hematoxylin. Images were captured at 40× magnification using a Nikon Optiphot microscope and Nikon Elements F software. Histology was assessed by H&E after IL-6 addition. The epidermal thickness from the basal layer keratinocytes to beginning of stratum corneum in three locations per healed mouse wound in multiple histology sections was measured by Image J software.

[6] = IL-6 50 ng/mL + cucurbitacin I, NHEK, 24 hours
[7] = cucurbitacin I 2 mg/kg vs PBS, western blot
[8] = 72 hours after 24 hours of poly (I:C) 20 μg/mL, NHEK
[9] = poly (I:C) 20 μg/mL treatment, NHEK
[10] = poly (I:C) 20 μg/mL, NHEK, 24 hours

Molecule: CC(C)(O)/C=C/C(=O)[C@](C)(O)[C@H]1[C@H](O)C[C@@]2(C)[C@@H]3CC=C4[C@@H](C=C(O)C(=O)C4(C)C)[C@]3(C)C(=O)C[C@]12C [cucurbitacin I]
- effect on IL-6-induced TAp63 mRNA increase ([1]; IL-6 50 ng/mL + cucurbitacin I, NHEK): reversed
- effect on IL-6-induced KRT1 decrease [1, 6]: reversed
- effect on induced CBX4 increase [1, 6]: reversed
- decrease in the number of regenerated follicles (murine skin wounds; wt C57BL/6J mice, cucurbitacin I 2 mg/kg injected at WD7, CSLM ~WD20-24): greater than 3 fold
- ANp63 protein (P-STAT3, TAp63, ΔNp63; [7]): corresponding increase
- TAp63 protein (P-STAT3, TAp63, ΔNp63; [7]): decrease
- STAT3 phosphorylation (P-STAT3, TAp63, ΔNp63; cucurbitacin I 2 mg/kg, western blot normalized to STAT3): strongly suppressed

Molecule: Polyinosinic:polycytidylic acid [poly (I:C)]
- KRT15 mRNA expression [1, 8]: significantly increased
- vimentin (VIM) mRNA expression ([1]; following poly (I:C) 20 μg/mL for 24 hours, indicated time points, NHEK): continued to increase in a time-dependent fashion
- EDAR expression [1, 9]: increased
- GLI1 expression [1, 9]: increased
- LEF1 expression [1, 9]: up-regulated
- SHH expression [1, 9]: increased
- induction of IL-6 mRNA ([1]; poly (I:C) 20 μg/mL, NHEK, 6 hours): greater than 30 fold
- CBX4 expression [1, 10]: increase
- KRT1 expression [1, 10]: nearly complete loss
- filaggrin (FLG) expression [1, 10]: nearly complete loss
- E-cadherin epithelial marker ([1]; same conditions as vimentin, poly (I:C) treated NHEK): not reduced
- effect on hair cycle (anagen activation) in nonwounded skin [2]: does not affect the hair cycle; also recorded: no activation of anagen
- percentage of KRT15 expressing cells by FACS (NHEK [3]; [8]): nearly doubled
- vimentin protein expression by flow cytometry (NHEK [3]; poly (I:C) treated NHEK vs control keratinocytes and fibroblasts): intermediate between that of control keratinocytes and fibroblasts
- stimulatory effect on WIHN in TLR3 null mice (murine skin wounds; TLR3 KO mice, poly (I:C) 200 ng vs PBS, CSLM): abrogated
- number of regenerated follicles (WIHN) (murine skin wounds; wt mice, single poly (I:C) 200 ng injected into wound at WD3 vs PBS, CSLM ~WD20-24): greater number of regenerated follicles
- STAT3 occupation of GLI2 promoter [4]: significant increase
- STAT3 occupation of β-catenin promoter [4]: significant increase
- amount of nuclear β-catenin (NHEK [5]): doubled
- keratinocyte length-width ratio (NHEK [5]): near doubling
- keratinocyte morphology (NHEK [5]): long, spindle-like morphology

B1: IL-6: recombinant mouse IL-6 protein in mice; recombinant human IL-6 in NHEK (protein, UniProt P08505 25-211, looked up)
Interleukin-6: FPTSQVRRGDFTEDTTPNRPVYTTSQVGGLITHVLWEIVEMRKELCNGNSDCMNNDDALAENNLKLPEIQRNDGCYQTGYNQEICLLKISSGLLEYHSYLEYMKNNLKDNKKDKARVLQRDTETLIHIFNQEVKDLHKIVLPTPISNALLTDKLESQKEWLRTKTIQFILKSLEEFLKVTLRSTRQT
- TAp63 mRNA ([1]; IL-6 50 ng/mL, NHEK): modest increase
- CBX4 expression ([1]; IL-6 50 ng/mL, NHEK, 24 hours): increase
- Keratin 1 (KRT1) differentiation marker expression ([1]; IL-6 50 ng/mL, NHEK, 24 hours): profound decrease
- apoptosis or proliferation (cleaved caspase 3, Ki-67) (healed murine wounds; healed murine wounds after rmIL-6 treatment): no alterations
- reduction in epidermal thickness vs controls (healed murine wounds; healed scars, IL-6 25 ng at WD7 vs PBS): 2 fold
- increase in the number of regenerated follicles vs vehicle (murine skin wounds; wt C57BL/6J mice, single rmIL-6 25 ng injected at WD7, CSLM ~WD20-24): ~3 fold
- increase in the amount of TAp63 protein (P-STAT3, TAp63, ΔNp63; IL-6 25 ng vs PBS, western blot normalized to β-actin): 2.5 fold
